From ChEMBL document CHEMBL1149117, “Synthesis and monoamine transporter binding of 2-(diarylmethoxymethyl)-3 beta-aryltropane derivatives” (J Med Chem, 2004)

Columns and labels:
[1] = molecular target: Sodium-dependent serotonin transporter (Rattus norvegicus, UniProt P31652); assay: Binding affinity against serotonin transporter by using [3H]-citalopram as a radioligand
[2] = molecular target: T1, Muscarinic acetylcholine receptor M1 (Rattus norvegicus, UniProt P08482); assay: Binding affinity against Muscarinic acetylcholine receptor M1 by using [3H]pirenzepine as a radioligand
T1 sequence (P08482 whole entry): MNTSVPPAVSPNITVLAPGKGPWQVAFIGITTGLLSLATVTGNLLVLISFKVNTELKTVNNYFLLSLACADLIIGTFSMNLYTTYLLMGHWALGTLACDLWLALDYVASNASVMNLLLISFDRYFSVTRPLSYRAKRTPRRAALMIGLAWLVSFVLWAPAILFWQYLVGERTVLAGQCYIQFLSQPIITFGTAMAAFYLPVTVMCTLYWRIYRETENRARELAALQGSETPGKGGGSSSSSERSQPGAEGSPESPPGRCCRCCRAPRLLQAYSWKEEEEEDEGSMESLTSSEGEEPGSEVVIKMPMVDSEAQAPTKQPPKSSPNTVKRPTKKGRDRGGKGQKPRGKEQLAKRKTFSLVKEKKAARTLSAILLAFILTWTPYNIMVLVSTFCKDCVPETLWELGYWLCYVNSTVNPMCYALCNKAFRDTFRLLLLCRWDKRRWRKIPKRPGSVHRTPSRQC

[3] = molecular target: Norepinephrine transporter (Rattus norvegicus, UniProt Q9WTR4); assay: Binding affinity against norepinephrine transporter by using [3H]nisoxetine as a radioligand
Norepinephrine transporter, sequence (Q9WTR4 whole entry): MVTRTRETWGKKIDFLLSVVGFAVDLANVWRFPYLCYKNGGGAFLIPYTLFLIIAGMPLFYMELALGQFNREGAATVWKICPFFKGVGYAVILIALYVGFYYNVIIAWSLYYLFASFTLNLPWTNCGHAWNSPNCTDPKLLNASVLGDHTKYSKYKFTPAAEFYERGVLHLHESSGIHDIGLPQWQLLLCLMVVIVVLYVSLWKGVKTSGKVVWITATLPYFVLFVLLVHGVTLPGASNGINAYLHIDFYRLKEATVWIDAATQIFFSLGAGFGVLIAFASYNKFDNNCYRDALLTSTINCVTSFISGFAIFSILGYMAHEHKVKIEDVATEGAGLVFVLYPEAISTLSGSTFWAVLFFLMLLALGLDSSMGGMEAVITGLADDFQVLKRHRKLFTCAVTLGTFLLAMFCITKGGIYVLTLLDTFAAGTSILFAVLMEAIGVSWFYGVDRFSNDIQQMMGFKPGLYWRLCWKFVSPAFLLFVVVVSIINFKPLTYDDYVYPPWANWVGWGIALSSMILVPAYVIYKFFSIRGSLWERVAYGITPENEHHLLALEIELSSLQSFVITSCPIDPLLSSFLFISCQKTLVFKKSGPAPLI

[4] = molecular target: Sodium-dependent dopamine transporter (Rattus norvegicus, UniProt P23977); assay: Binding affinity against dopamine transporter by using [3H]WIN-35428 as a radioligand
Sodium-dependent dopamine transporter, sequence (P23977 whole entry): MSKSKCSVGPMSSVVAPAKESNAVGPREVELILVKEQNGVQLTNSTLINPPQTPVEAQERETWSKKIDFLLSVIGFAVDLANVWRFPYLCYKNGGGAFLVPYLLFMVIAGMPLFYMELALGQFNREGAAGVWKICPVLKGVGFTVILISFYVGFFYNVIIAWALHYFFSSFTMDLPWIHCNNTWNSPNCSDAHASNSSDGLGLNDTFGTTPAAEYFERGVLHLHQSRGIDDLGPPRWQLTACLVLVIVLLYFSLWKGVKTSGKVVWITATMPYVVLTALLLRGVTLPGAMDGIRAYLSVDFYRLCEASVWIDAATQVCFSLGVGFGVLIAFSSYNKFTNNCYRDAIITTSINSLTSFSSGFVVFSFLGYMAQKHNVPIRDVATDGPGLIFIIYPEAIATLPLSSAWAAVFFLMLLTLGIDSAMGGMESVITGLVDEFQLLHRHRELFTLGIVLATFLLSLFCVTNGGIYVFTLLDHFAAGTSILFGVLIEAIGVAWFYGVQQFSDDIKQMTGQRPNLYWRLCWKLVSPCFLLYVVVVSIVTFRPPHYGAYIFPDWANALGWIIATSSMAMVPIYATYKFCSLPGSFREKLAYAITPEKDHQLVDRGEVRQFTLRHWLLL

Sodium-dependent serotonin transporter, sequence (P31652 whole entry): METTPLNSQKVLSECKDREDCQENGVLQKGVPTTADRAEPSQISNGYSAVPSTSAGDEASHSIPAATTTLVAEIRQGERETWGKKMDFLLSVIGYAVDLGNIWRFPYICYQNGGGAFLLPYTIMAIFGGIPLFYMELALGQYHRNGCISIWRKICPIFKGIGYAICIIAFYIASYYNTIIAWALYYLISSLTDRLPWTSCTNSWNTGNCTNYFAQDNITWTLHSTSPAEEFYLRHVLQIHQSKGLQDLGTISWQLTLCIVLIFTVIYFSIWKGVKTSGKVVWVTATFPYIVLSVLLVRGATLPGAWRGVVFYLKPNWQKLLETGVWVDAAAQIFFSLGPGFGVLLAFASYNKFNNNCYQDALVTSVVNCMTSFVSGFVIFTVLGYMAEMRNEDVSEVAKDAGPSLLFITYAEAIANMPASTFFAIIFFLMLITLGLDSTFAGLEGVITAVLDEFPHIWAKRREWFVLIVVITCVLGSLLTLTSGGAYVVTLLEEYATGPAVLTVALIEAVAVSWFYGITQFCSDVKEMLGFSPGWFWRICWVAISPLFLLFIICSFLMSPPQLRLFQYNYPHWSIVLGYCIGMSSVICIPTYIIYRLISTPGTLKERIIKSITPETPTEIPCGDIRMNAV

In the case of `Cc1ccc(C2CC3CCC([C@@H]2COC(c2ccccc2)c2ccc(Cl)cc2)N3C)cc1` (some centres undefined), the Ki [1] is reported as 1000 nM, the Ki [2] is reported as 18200 nM and the Ki [3] is reported as 22500 nM. For the same compound, the Ki [4] was 937 nM.
Work on `CN1C2CCC1[C@H](COC(c1ccccc1)c1ccccc1)C(c1ccc(Cl)cc1)C2` (some centres undefined) yielded a Ki [1] of 408 nM, a Ki [2] of 11500 nM and a Ki [3] of 4000 nM. The Ki [4] was 478 nM.
Compound `Cc1ccc(C2CC3CCC([C@@H]2COC(c2ccccc2)c2ccccc2)N3C)cc1` (some centres undefined) has a Ki [1] of 530 nM, a Ki [2] of 12600 nM and a Ki [3] of 2610 nM. It also gave a Ki [4] of 455 nM.
`CN1C2CCC1[C@H](COC(c1ccc(F)cc1)c1ccc(F)cc1)C(c1ccc(Cl)cc1)C2` (some centres undefined) showed a Ki [1] of 724 nM, a Ki [2] of 9930 nM and a Ki [3] of 52300 nM. The Ki [4] was 250 nM.
Compound `CN1C2CCC1[C@H](COC(c1ccccc1)c1ccc(Cl)cc1)C(c1ccc(Cl)cc1)C2` (some centres undefined) has a Ki [1] of 1290 nM, a Ki [2] of 9600 nM and a Ki [3] of 5600 nM. The Ki [4] was 553 nM.
Compound `Cc1ccc(C2CC3CCC([C@@H]2COC(c2ccc(F)cc2)c2ccc(F)cc2)N3C)cc1` (some centres undefined) has a Ki [1] of 786 nM, a Ki [2] of 9700 nM and a Ki [3] of 16000 nM. For the same compound, the Ki [4] was 690 nM.
Work on `Cc1ccc(C2CC3CCC([C@H]2COC(c2ccccc2)c2ccc(Cl)cc2)N3C)cc1` (some centres undefined) yielded a Ki [1] of 443 nM, a Ki [2] of 31600 nM and a Ki [3] of 4400 nM. It also gave a Ki [4] of 80 nM.
For `CN1C2CCC1[C@@H](COC(c1ccc(F)cc1)c1ccc(F)cc1)C(c1ccc(Cl)cc1)C2` (some centres undefined), the Ki [1] was 245 nM, the Ki [2] was 16300 nM and the Ki [3] was 2890 nM. For the same compound, the Ki [4] was 99 nM.
With `Cc1ccc(C2CC3CCC([C@H]2COC(c2ccc(F)cc2)c2ccc(F)cc2)N3C)cc1` (some centres undefined) the Ki [1] was 233 nM, the Ki [2] was 15500 nM and the Ki [3] was 1830 nM. It also gave a Ki [4] of 62 nM.
Compound `CN1C2CCC1C(CCCOC(c1ccc(F)cc1)c1ccc(F)cc1)C(c1ccccc1)C2` (centres undefined) has a Ki [4] of 60 nM.
Work on `CN1C2CCC1[C@@H](COC(c1ccccc1)c1ccc(Cl)cc1)C(c1ccc(Cl)cc1)C2` (some centres undefined) yielded a Ki [1] of 462 nM, a Ki [2] of 39900 nM and a Ki [3] of 2060 nM. It also gave a Ki [4] of 76 nM.
In the case of `CN1C2CCC1[C@@H](COC(c1ccccc1)c1ccc(Cl)cc1)C(c1ccc(F)cc1)C2` (some centres undefined), the Ki [4] is reported as 112 nM.
In the case of `CN1C2CCC1[C@@H](COC(c1ccccc1)c1ccccc1)C(c1ccc(F)cc1)C2` (some centres undefined), the Ki [4] is reported as 49 nM.
In the case of `CN1C2CCC1[C@@H](COC(c1ccc(F)cc1)c1ccc(F)cc1)C(c1ccc(F)cc1)C2` (some centres undefined), the Ki [4] is reported as 63 nM.
In the case of `Cc1ccc(C2CC3CCC([C@H]2COC(c2ccccc2)c2ccccc2)N3C)cc1` (some centres undefined), the Ki [1] is reported as 121 nM, the Ki [2] is reported as 10600 nM and the Ki [3] is reported as 684 nM. The Ki [4] was 34 nM.
`CN1C2CCC1C(CCCOC(c1ccccc1)c1ccc(Cl)cc1)C(c1ccccc1)C2` (centres undefined) was tested, and the Ki [1] was 45 nM, the Ki [2] was 24600 nM and the Ki [4] was 261 nM.
Work on `CN1C2CCC1C(CCCOC(c1ccccc1)c1ccccc1)C(c1ccccc1)C2` (centres undefined) yielded a Ki [1] of 61 nM, a Ki [2] of 7970 nM and a Ki [3] of 207 nM. For the same compound, the Ki [4] was 139 nM.
With `CN1C2CCC1[C@@H](COC(c1ccccc1)c1ccccc1)C(c1ccc(Cl)cc1)C2` (some centres undefined) the Ki [1] was 147 nM, the Ki [2] was 11000 nM and the Ki [3] was 1190 nM. The Ki [4] was 52 nM.
